In data set [1] the target is T1, human GLP-1 receptor (Homo sapiens, UniProt P43220).
T1 construct: expressed in transfected cells; host or cells: BHK cells (parent line BHKTS13), clone FCW467-12A; membrane preparation
As to the kind of experiment: GLP-1 receptor binding: competitive binding assay (125I-GLP-1, SPA) on isolated membranes at low and high HSA. The note with it: displacement of 125I-GLP-1; for IC50: high serum albumin (2.0% HSA final assay concentration). A general note: Loss of bound radioactivity is the signal in a displacement assay; it reports binding, not function.
Method: The purpose of this example is to test the receptor binding of the GLP-1 derivatives in vitro. The receptor binding is a measure of affinity of a derivative for the human GLP-1 receptor.
In this type of assay a labelled ligand (in this case ^125I-GLP-1) is bound to the receptor. Each derivative is added in a series of concentrations to isolated membranes containing the human GLP-1 receptor and displacement of the labelled ligand is monitored. The receptor binding is reported as the concentration at which half of the labelled ligand is displaced from the receptor, the IC50 value.
The following chemicals were used in the assay: Human serum albumin (HSA) (Sigma A1653), DMEM w/o phenol red (Gibco 11880-028), Pen/strep (Invitrogen 15140-122), G418 (Invitrogen 10131-027), 1 M Hepes (Gibco 15630), EDTA (Invitrogen 15575-038), PBS (Invitrogen 14190-094), fetal calf serum (Invitrogen 16140-071), EGTA, MgCl2 (Merck 1.05832.1000), Tween 20 (Amresco 0850C335), SPA particles (wheat germ agglutinin (WGA) SPA beads, Perkin Elmer RPNQ0001), [^125I]-GLP-1]-(7-36)NH2 (produced in-house), OptiPlate™-96 (Packard 6005290).
Buffer 1 consisted of 20 mM Na-HEPES plus 10 mM EDTA and pH was adjusted to 7.4. Buffer 2 consisted of 20 mM Na-HEPES plus 0.1 mM EDTA and pH was adjusted to 7.4. Assay buffer consisted of 50 mM HEPES supplemented with 5 mM EGTA, 5 mM MgCl2, 0.005% Tween 20 and pH was adjusted to 7.4. An 8% albumin stock consisted of HSA dissolved at 8% (w/v) in assay buffer. An 0.02% albumin stock consisted of HSA dissolved at 0.02% (w/v) in assay buffer.
The cells express the human GLP-1 receptor.
The cells were grown at 5% CO2 in DMEM, 10% fetal calf serum, 1% Pen/Strep (Penicillin/Streptomycin) and 1.0 mg/ml of the selection marker G418.
To make a membrane preparation the cells were grown to approximately 80% confluence. The cells were washed twice in phosphate-buffered saline and harvested. The cells were pelleted using a brief centrifugation and the cell pellet was kept on ice. The cell pellet was homogenised with ULTRA-THURRAX™ dispersing instrument for 20-30 seconds in a suitable amount of buffer 1 (e.g., 10 ml). The homogenate was centrifuged for 15 minutes. The pellet was re-suspended (homogenised) in 10 ml buffer 2 and centrifuged. This step was repeated once more. The resulting pellet was re-suspended in buffer 2 and the protein concentration was determined. The membranes were aliquoted and stored at minus 80° C.
For the receptor binding assay in the presence of low HSA (0.005%) 50 μl of the assay buffer was added to each well of an assay plate. Assay continued with step 3.
For the receptor binding assay in the presence of high HSA (2%) 50 μl of the 8% albumin stock was added to each well of an assay plate. Assay continued with step 3.
Cell membrane aliquots were thawed and diluted to their working concentration. Fifty μl were added to each well in the assay plate.
WGA SPA beads were suspended in assay buffer at 20 mg/ml. The suspension was diluted to 10 mg/ml in assay buffer just prior to addition to the assay plate. Fifty μl were added to each well in the assay plate.
The incubation was started by adding 25 μl of 480 pM solution of [^125I]-GLP-1]-(7-36)NH2 to each well of the assay plate. A 25 μl aliquot was reserved for measuring total counts/well.
The assay plate was incubated for 2 h at 30° C.
The assay plate was centrifuged for 10 min.
The assay plate was read in a Packard TopCount NXT instrument.
The data from the TopCount instrument were transferred to GraphPad Prism software. The software averaged the values for the replicates and performed a non-linear regression. IC50 values were calculated by the software and reported in nM.

The nature of another data set: in vivo. To be noted: male, Göttingen, minipig, iv.
Data set [2] concerns the target T1, human GLP-1 receptor. As to the kind of experiment: In vitro potency: CRE luciferase reporter gene assay in BHK cells expressing the human GLP-1 receptor. Format: cell-based. To be noted: whole cell reporter gene assay, BHK clone FCW467-12A/KZ10-1; averages of at least two replicates.
Method: The purpose of this example is to test the activity, or potency, of the GLP-1 derivatives in vitro. The in vitro potency is the measure of human GLP-1 receptor activation in a whole cell assay.
In vitro potency was determined by measuring the response of the human GLP-1 receptor in a reporter gene assay. The assay was performed in a stably transfected BHK cell line that expresses the human GLP-1 receptor and contains the DNA for the cAMP response element (CRE) coupled to a promoter and the gene for firefly luciferase (CRE luciferase). When the human GLP-1 receptor is activated it results in the production of cAMP, which in turn results in the luciferase protein being expressed. When assay incubation is completed the luciferase substrate (luciferin) is added and the enzyme converts luciferin to oxyluciferin to produce bioluminescence. The luminescence is measured as the readout for the assay.
The cells were cultured at 5% CO2 in Cell Culture Medium. They were aliquoted and stored in liquid nitrogen. Before each assay an aliquot is taken up and washed twice in PBS before being suspended at the desired concentration in the assay specific buffer. For 96-well plates the suspension was made to give a final concentration of 5×10^3 cells/well.
The following chemicals were used in the assay: Pluronic F-68 (10%) (Gibco 2404), human serum albumin (HSA) (Sigma A9511), ovalbumin (Sigma A5503), DMEM w/o phenol red (Gibco 11880-028), 1 M Hepes (Gibco 15630), Glutamax 100× (Gibco 35050) and steadylite plus (PerkinElmer 6016757).
Cell Culture Medium consisted of DMEM medium with 10% FBS (Fetal Bovine Serum; Invitrogen 16140-071), 1 mg/ml G418 (Invitrogen 15140-122), 240 nM MTX (methotrexate; Sigma M9929) and 1% pen/strep (penicillin/streptomycin; Invitrogen 15140-122).
Assay Medium consisted of DMEM w/o phenol red, 10 mM Hepes and 1× Glutamax. The Assay Buffer consisted of 2% ovalbumin and 0.2% Pluronic F-68 in Assay Medium.
1) Cell stocks were thawed in a 37° C. water bath.
2) Cells were washed three times in PBS.
3) The cells were counted and adjusted to 5×10^3 cells/50 μl (1×10^5 cells/ml) in Assay Medium. A 50 μl aliquot of cells was transferred to each well in the assay plate.
4) Stocks of the test compounds and reference compounds were diluted to a concentration of 0.2 pM in Assay Buffer. […] Compounds were tested at the following final concentrations: 1×10^−7 M, 1×10^−8 M; 1×10^−9 M, 1×10^−10 M, 1×10^−11 M, 1×10^−12 M, 1×10^−13 M, and 1×10^−14 M. 6) The assay plate was incubated for 3 h in a 5% CO2 incubator at 37° C. 7) The assay plate was removed from the incubator and allowed to stand at room temperature for 15 min. 8) A 100 μl aliquot of steadylite plus reagent was added to each well of the assay plate (reagent was light sensitive). 9) Each assay plate was covered with aluminum foil to protect it from light and shaken for 30 min at room temperature. 10) Each assay plate was read in a Packard TopCount NXT instrument. Calculations and Results
The data from the TopCount instrument were transferred to GraphPad Prism software. The software performs a non-linear regression (log(agonist) vs response).
A minimum of two replicates was measured for each sample. The reported values are averages of the replicates.

These results are taken from US10266577B2, “GLP-1 derivatives, and uses thereof” (Novo Nordisk A/S, priority 2013, dated 2019).

Numbered stars: 1 amine (or outer) side, 2 acyl side, 3 side chain; on linkers, the order of the positions; unused ones are H or OH. Bridge positions count the residues as written; N and C are the ends. Square brackets hold non-standard residues; d marks the D form. Side chains are listed from the residue outwards. Ends that are not written are not given here. Peptide text beside a SMILES is read from it. I, II: the chains in the order shown. * marks the point of attachment. C18 diacid = O=C(O)CCCCCCCCCCCCCCCCC(=O)*; γGlu = O=C(O)[C@H](CCC(=O)[*:2])N[*:1]; εLys = N[C@@H](CCCCN[*:1])C(=O)[*:2]; AEEA = NCCOCCOCC(=O)O; Aib = CC(C)(N)C(=O)O

In general, IC50 refers to the concentration that inhibits the measured activity by half. Read a low IC50 as higher potency. What is called half-life is how long it takes for the measured level to halve. Low readings indicate rapid decline, high ones slow decline. The EC50 is the concentration needed to bring the measured effect to its halfway point. A low value points to a more potent agent.

T1 sequence (P43220 24-463): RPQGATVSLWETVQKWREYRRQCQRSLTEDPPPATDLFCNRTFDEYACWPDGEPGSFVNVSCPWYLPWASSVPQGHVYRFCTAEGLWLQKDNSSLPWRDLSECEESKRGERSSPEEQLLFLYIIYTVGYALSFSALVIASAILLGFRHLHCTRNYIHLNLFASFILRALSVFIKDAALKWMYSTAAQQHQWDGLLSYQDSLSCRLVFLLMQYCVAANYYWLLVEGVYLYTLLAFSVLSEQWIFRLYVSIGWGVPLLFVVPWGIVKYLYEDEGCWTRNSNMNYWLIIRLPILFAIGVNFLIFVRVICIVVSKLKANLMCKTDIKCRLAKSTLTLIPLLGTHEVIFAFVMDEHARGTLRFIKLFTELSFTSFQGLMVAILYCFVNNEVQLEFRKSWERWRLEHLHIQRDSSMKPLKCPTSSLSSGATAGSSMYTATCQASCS
Method for in vivo: The purpose of this study is to determine the protraction in vivo of the GLP-1 derivatives after i.v. administration to minipigs, i.e. the prolongation of their time in the body and thereby their time of action. This is done in a pharmacokinetic (PK) study, where the terminal half-life of the derivative in question is determined. By terminal half-life is meant the time it takes to halve a certain plasma concentration in the terminal elimination phase.
Male Göttingen minipigs were obtained from Ellegaard Göttingen Minipigs (Dalmose, Denmark) approximately 7-14 months of age and weighing approximately 16-35 kg were used in the studies. The minipigs were housed either individually (pigs with permanent catheters) or in a group and fed restrictedly once or twice daily with SDS minipig diet (Special Diets Services, Essex, UK).
After at least 2 weeks of acclimatisation two permanent central venous catheters were implanted in vena cava caudalis or cranialis in each animal. The animals were allowed 1 week recovery after the surgery, and were then used for repeated pharmacokinetic studies with a suitable wash-out period between successive GLP-1 derivative dosings.
Blood samples (for example 0.8 ml) were collected in EDTA buffer (8 mM) and then centrifuged at 4° C. and 1942G for 10 minutes.
Plasma was pipetted into Micronic tubes on dry ice, and kept at −20° C. until analysed for plasma concentration of the respective GLP-1 compound using LOCI. Individual plasma concentration-time profiles were analyzed by a non-compartmental pharmacokinetic method in Phoenix v. 6.2 (Pharsight Inc., Mountain View, Calif., USA), or other relevant software for PK analysis, and the resulting terminal half-lives (harmonic mean) determined.

As for `CC[C@H](C)[C@H](NC(=O)[C@H](Cc1ccccc1)NC(=O)[C@H](CCCCNC(=O)[C@@H](N)CCCCNC(=O)COCCOCCNC(=O)COCCOCCNC(=O)CC[C@H](NC(=O)CCCCCCCCCCCCCCCCC(=O)O)C(=O)O)NC(=O)[C@H](CCCNC(=N)N)NC(=O)[C@H](C)NC(=O)[C@H](C)NC(=O)[C@H](CCC(N)=O)NC(=O)[C@H](CCC(=O)O)NC(=O)[C@H](CCC(=O)O)NC(=O)[C@H](CC(C)C)NC(=O)[C@H](Cc1ccc(O)cc1)NC(=O)[C@H](CCCCNC(=O)[C@@H](N)CCCCNC(=O)COCCOCCNC(=O)COCCOCCNC(=O)CC[C@H](NC(=O)CCCCCCCCCCCCCCCCC(=O)O)C(=O)O)NC(=O)[C@H](CO)NC(=O)[C@@H](NC(=O)[C@H](CC(=O)O)NC(=O)[C@H](CO)NC(=O)[C@@H](NC(=O)[C@H](Cc1ccccc1)NC(=O)[C@@H](NC(=O)CNC(=O)[C@H](CCC(=O)O)NC(=O)C(C)(C)NC(=O)[C@@H](N)Cc1c[nH]cn1)[C@@H](C)O)[C@@H](C)O)C(C)C)C(=O)N[C@@H](C)C(=O)N[C@@H](Cc1c[nH]c2ccccc12)C(=O)N[C@@H](CC(C)C)C(=O)N[C@H](C(=O)N[C@@H](CCCNC(=N)N)C(=O)NCC(=O)N[C@@H](CCCNC(=N)N)C(=O)N[C@@H](CCCCNC(=O)[C@@H](N)CCCCNC(=O)COCCOCCNC(=O)COCCOCCNC(=O)CC[C@H](NC(=O)CCCCCCCCCCCCCCCCC(=O)O)C(=O)O)C(=O)O)C(C)C` [Example 6] (H-H[Aib]EGTFTSDVSK([εLys-AEEA-AEEA-γGlu-C18 diacid])YLEEQAARK([εLys-AEEA-AEEA-γGlu-C18 diacid])FIAWLVRGRK([εLys-AEEA-AEEA-γGlu-C18 diacid])-OH; N-terminus and C-terminus assumed), the Low HSA IC50 at human GLP-1 receptor [1] (Low HSA IC50, low serum albumin (max. 0.001% final assay concentration)) is 0.4 nM. Also, the IC50 at human GLP-1 receptor [1] is above 1000 nM. Also, the half-life in the data set “in vivo” was 103 h.

“I: H[Aib]EGTFTSDVSKYLEGQAARKFIAWLVRGRK / II: {C18 diacid-γGlu}-SSSSSS / III: {C18 diacid-γGlu}-SSSSSS / IV: {C18 diacid-γGlu}-SSSSSS (amide I:12-III:C, I:21-II:C, I:31-IV:C) [Example 9]”: it took 0.067 nM to reach a half-maximal effect on human GLP-1 receptor [2] (EC50). At human GLP-1 receptor [1], this molecule came in with an IC50 above 1000 nM. `CC[C@H](C)[C@H](NC(=O)[C@H](Cc1ccccc1)NC(=O)[C@H](CCC(=O)O)NC(=O)[C@H](CCCNC(=N)N)NC(=O)[C@H](C)NC(=O)[C@H](C)NC(=O)[C@H](CCC(N)=O)NC(=O)[C@H](CCCCNC(=O)COCCOCCNC(=O)COCCOCCNC(=O)COCCOCCNC(=O)COCCOCCNC(=O)COCCOCCNC(=O)[C@@H](N)CCCCNC(=O)[C@@H](N)CCCCNC(=O)[C@@H](N)CCCCNC(=O)CCCCCCCCCCCCCCCCC(=O)O)NC(=O)[C@H](CCC(=O)O)NC(=O)[C@H](CC(C)C)NC(=O)[C@H](Cc1ccc(O)cc1)NC(=O)[C@H](CCCCNC(=O)COCCOCCNC(=O)COCCOCCNC(=O)COCCOCCNC(=O)COCCOCCNC(=O)COCCOCCNC(=O)[C@@H](N)CCCCNC(=O)[C@@H](N)CCCCNC(=O)[C@@H](N)CCCCNC(=O)CCCCCCCCCCCCCCCCC(=O)O)NC(=O)[C@H](CO)NC(=O)[C@@H](NC(=O)[C@H](CC(=O)O)NC(=O)[C@H](CO)NC(=O)[C@@H](NC(=O)[C@H](Cc1ccccc1)NC(=O)[C@@H](NC(=O)CNC(=O)[C@H](CCC(=O)O)NC(=O)C(C)(C)NC(=O)[C@@H](N)Cc1c[nH]cn1)[C@@H](C)O)[C@@H](C)O)C(C)C)C(=O)N[C@@H](CCCCNC(=O)COCCOCCNC(=O)COCCOCCNC(=O)COCCOCCNC(=O)COCCOCCNC(=O)COCCOCCNC(=O)[C@@H](N)CCCCNC(=O)[C@@H](N)CCCCNC(=O)[C@@H](N)CCCCNC(=O)CCCCCCCCCCCCCCCCC(=O)O)C(=O)N[C@@H](Cc1c[nH]c2ccccc12)C(=O)N[C@@H](CC(C)C)C(=O)N[C@H](C(=O)N[C@@H](CCCNC(=N)N)C(=O)NCC(=O)N[C@@H](CCCNC(=N)N)C(=O)NCC(=O)O)C(C)C` [Example 17] returned an EC50 at human GLP-1 receptor [2] of 0.018 nM. This molecule gave a half-life in “in vivo” of 143 h. `CC[C@H](C)[C@H](NC(=O)[C@H](Cc1ccccc1)NC(=O)[C@H](CCCCNC(=O)COCCOCCNC(=O)COCCOCCNC(=O)CC[C@H](NC(=O)CCCCCCCCCCCCCCCCC(=O)O)C(=O)O)NC(=O)[C@H](CCCNC(=N)N)NC(=O)[C@H](C)NC(=O)[C@H](C)NC(=O)[C@H](CCC(N)=O)NC(=O)[C@H](CCC(=O)O)NC(=O)[C@H](CCC(=O)O)NC(=O)[C@H](CC(C)C)NC(=O)[C@H](Cc1ccc(O)cc1)NC(=O)[C@H](CO)NC(=O)[C@H](CO)NC(=O)[C@@H](NC(=O)[C@H](CC(=O)O)NC(=O)[C@H](CO)NC(=O)[C@@H](NC(=O)[C@H](Cc1ccccc1)NC(=O)[C@@H](NC(=O)CNC(=O)[C@H](CCC(=O)O)NC(=O)C(C)(C)NC(=O)[C@@H](N)Cc1c[nH]cn1)[C@@H](C)O)[C@@H](C)O)C(C)C)C(=O)N[C@@H](CCCCNC(=O)COCCOCCNC(=O)COCCOCCNC(=O)CC[C@H](NC(=O)CCCCCCCCCCCCCCCCC(=O)O)C(=O)O)C(=O)N[C@@H](Cc1c[nH]c2ccccc12)C(=O)N[C@@H](CC(C)C)C(=O)N[C@H](C(=O)N[C@@H](CCCNC(=N)N)C(=O)NCC(=O)N[C@@H](CCCNC(=N)N)C(=O)N[C@@H](CCCCNC(=O)COCCOCCNC(=O)COCCOCCNC(=O)CC[C@H](NC(=O)CCCCCCCCCCCCCCCCC(=O)O)C(=O)O)C(=O)O)C(C)C` [Example 10] (H-H[Aib]EGTFTSDVSSYLEEQAARK([AEEA-AEEA-γGlu-C18 diacid])FIK([AEEA-AEEA-γGlu-C18 diacid])WLVRGRK([AEEA-AEEA-γGlu-C18 diacid])-OH; N-terminus and C-terminus assumed) displayed an EC50 on human GLP-1 receptor [2] of 0.026 nM. Also, in the data set “in vivo”, the half-life is 158 h.

Molecule `CC[C@H](C)[C@H](NC(=O)[C@H](Cc1ccccc1)NC(=O)[C@H](CCCCNC(=O)COCCOCCNC(=O)COCCOCCNC(=O)CC[C@H](NC(=O)CCCCCCCCCCCCCCCCC(=O)O)C(=O)O)NC(=O)[C@H](CCCNC(=N)N)NC(=O)[C@H](C)NC(=O)[C@H](C)NC(=O)[C@H](CCC(N)=O)NC(=O)[C@H](CCC(=O)O)NC(=O)[C@H](CCC(=O)O)NC(=O)[C@H](CC(C)C)NC(=O)[C@H](Cc1ccc(O)cc1)NC(=O)[C@H](CCCCNC(=O)COCCOCCNC(=O)COCCOCCNC(=O)CC[C@H](NC(=O)CCCCCCCCCCCCCCCCC(=O)O)C(=O)O)NC(=O)[C@H](CO)NC(=O)[C@@H](NC(=O)[C@H](CC(=O)O)NC(=O)[C@H](CO)NC(=O)[C@@H](NC(=O)[C@H](Cc1ccccc1)NC(=O)[C@@H](NC(=O)CNC(=O)[C@H](CCC(=O)O)NC(=O)C(C)(C)NC(=O)[C@@H](N)Cc1c[nH]cn1)[C@@H](C)O)[C@@H](C)O)C(C)C)C(=O)N[C@@H](C)C(=O)N[C@@H](Cc1c[nH]c2ccccc12)C(=O)N[C@@H](CC(C)C)C(=O)N[C@H](C(=O)N[C@@H](CCCNC(=N)N)C(=O)NCC(=O)N[C@@H](CCCNC(=N)N)C(=O)N[C@@H](CCCCNC(=O)COCCOCCNC(=O)COCCOCCNC(=O)CC[C@H](NC(=O)CCCCCCCCCCCCCCCCC(=O)O)C(=O)O)C(=O)O)C(C)C` [Example 5] (H-H[Aib]EGTFTSDVSK([AEEA-AEEA-γGlu-C18 diacid])YLEEQAARK([AEEA-AEEA-γGlu-C18 diacid])FIAWLVRGRK([AEEA-AEEA-γGlu-C18 diacid])-OH; N-terminus and C-terminus assumed) displayed an IC50 at human GLP-1 receptor [1] above 1000 nM. Turning to `CC[C@H](C)[C@H](NC(=O)[C@H](Cc1ccccc1)NC(=O)[C@H](CCC(=O)O)NC(=O)[C@H](CCCNC(=N)N)NC(=O)[C@H](C)NC(=O)[C@H](C)NC(=O)[C@H](CCC(N)=O)NC(=O)[C@H](CCCCNC(=O)COCCOCCNC(=O)COCCOCCNC(=O)COCCOCCNC(=O)COCCOCCNC(=O)COCCOCCNC(=O)[C@@H](N)CCCCNC(=O)[C@@H](N)CCCCNC(=O)CCCCCNC(=O)CCCCCCCCCCCCCCCS(=O)(=O)O)NC(=O)[C@H](CCC(=O)O)NC(=O)[C@H](CC(C)C)NC(=O)[C@H](Cc1ccc(O)cc1)NC(=O)[C@H](CCCCNC(=O)COCCOCCNC(=O)COCCOCCNC(=O)COCCOCCNC(=O)COCCOCCNC(=O)COCCOCCNC(=O)[C@@H](N)CCCCNC(=O)[C@@H](N)CCCCNC(=O)CCCCCNC(=O)CCCCCCCCCCCCCCCS(=O)(=O)O)NC(=O)[C@H](CO)NC(=O)[C@@H](NC(=O)[C@H](CC(=O)O)NC(=O)[C@H](CO)NC(=O)[C@@H](NC(=O)[C@H](Cc1ccccc1)NC(=O)[C@@H](NC(=O)CNC(=O)[C@H](CCC(=O)O)NC(=O)C(C)(C)NC(=O)[C@@H](N)Cc1c[nH]cn1)[C@@H](C)O)[C@@H](C)O)C(C)C)C(=O)N[C@@H](CCCCNC(=O)COCCOCCNC(=O)COCCOCCNC(=O)COCCOCCNC(=O)COCCOCCNC(=O)COCCOCCNC(=O)[C@@H](N)CCCCNC(=O)[C@@H](N)CCCCNC(=O)CCCCCNC(=O)CCCCCCCCCCCCCCCS(=O)(=O)O)C(=O)N[C@@H](Cc1c[nH]c2ccccc12)C(=O)N[C@@H](CC(C)C)C(=O)N[C@H](C(=O)N[C@@H](CCCNC(=N)N)C(=O)NCC(=O)N[C@@H](CCCNC(=N)N)C(=O)NCC(=O)O)C(C)C` [Example 20], on human GLP-1 receptor [1], the IC50 amounted to 100 nM. For `CC[C@H](C)[C@H](NC(=O)[C@H](Cc1ccccc1)NC(=O)[C@H](CCC(=O)O)NC(=O)[C@H](CCCNC(=N)N)NC(=O)[C@H](C)NC(=O)[C@H](C)NC(=O)[C@H](CCC(N)=O)NC(=O)[C@H](CCCCNC(=O)COCCOCCNC(=O)COCCOCCNC(=O)[C@@H](N)CCCCNC(=O)CCCCCCCCCCCCCCCS(=O)(=O)O)NC(=O)[C@H](CCC(=O)O)NC(=O)[C@H](CC(C)C)NC(=O)[C@H](Cc1ccc(O)cc1)NC(=O)[C@H](CCCCNC(=O)COCCOCCNC(=O)COCCOCCNC(=O)[C@@H](N)CCCCNC(=O)CCCCCCCCCCCCCCCS(=O)(=O)O)NC(=O)[C@H](CO)NC(=O)[C@@H](NC(=O)[C@H](CC(=O)O)NC(=O)[C@H](CO)NC(=O)[C@@H](NC(=O)[C@H](Cc1ccccc1)NC(=O)[C@@H](NC(=O)CNC(=O)[C@H](CCC(=O)O)NC(=O)C(C)(C)NC(=O)[C@@H](N)Cc1c[nH]cn1)[C@@H](C)O)[C@@H](C)O)C(C)C)C(=O)N[C@@H](CCCCNC(=O)COCCOCCNC(=O)COCCOCCNC(=O)[C@@H](N)CCCCNC(=O)CCCCCCCCCCCCCCCS(=O)(=O)O)C(=O)N[C@@H](Cc1c[nH]c2ccccc12)C(=O)N[C@@H](CC(C)C)C(=O)N[C@H](C(=O)N[C@@H](CCCNC(=N)N)C(=O)NCC(=O)N[C@@H](CCCNC(=N)N)C(=O)NCC(=O)O)C(C)C` [Example 13], the EC50 at human GLP-1 receptor [2] turned out to be 0.026 nM.
